According to patent USRE42890E1, “Furazanobenzimidazoles” (Basilea Pharmaceutica AG, priority 2003, dated 2011):

Columns and labels:
Jurkat = test: MTS proliferation assay, Jurkat; format: cell-based, human; details: 72 h incubation, read-out: MTS proliferation assay IC 50 Jurkat
How it was run: (§1)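 Proliferation: RPMI-1640/FCS complete medium, 37 °C, 7.5% CO2, cells plated 24 h pre-dose; compounds at 10, 3, 1, 0.3 μM final for 72 h; MTS, 492 nm.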

Jily = test: MTS proliferation assay, Jily; format: cell-based; details: 72 h incubation, read-out: MTS proliferation assay IC 50 Jily
How it was run: (§2)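 Viability after 72 h compound exposure at 10, 3, 1 and 0.3 μM final was scored by MTS absorbance (492 nm, 3 h reagent incubation), with cells kept in RPMI-1640 containing 5% or 10% fetal calf serum.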

HT1080 = test: MTS proliferation assay, HT1080; format: cell-based, human; details: HT1080, 72 h incubation; read-out: MTS proliferation assay IC 50 HT1080
How it was run: as §1

HeLa = test: MTS proliferation assay, HeLa; format: cell-based, human; details: 72 h incubation, read-out: MTS proliferation assay IC 50 HeLa
How it was run: as §1

MRC5 = test: MTS proliferation assay, MRC5; format: cell-based; details: MRC5, 72 h incubation; read-out: MTS proliferation assay IC 50 MRC5
How it was run: as §2

[1] = tested on: adherent cells or suspension cells; test: Hoechst 33342 nuclear staining (fraction of apoptotic nuclei); format: cell-based; design: key: 0 relating to no activity; 1 relating to weak activity comprising less than 70% of the cells; score 2 relating to strong activity comprising more than 70% of the cells

Row | SMILES | IC50 (Jurkat) | IC50 (Jily) | IC50 (HT1080) | IC50 (HeLa) | IC50 (MRC5) | Hoechst 33342 nuclear staining score ([1]; HeLa, conc 0.01 μm) | Hoechst 33342 nuclear staining score ([1]; HeLa, conc 0.1 μm) | Hoechst 33342 nuclear staining score ([1]; HeLa, conc 1 μm) | Hoechst 33342 nuclear staining score ([1]; Jily, conc 0.01 μm) | Hoechst 33342 nuclear staining score ([1]; Jily, conc 0.1 μm) | Hoechst 33342 nuclear staining score ([1]; Jily, conc 1 μm) | Hoechst 33342 nuclear staining score ([1]; Jurkat, conc 0.01 μm) | Hoechst 33342 nuclear staining score ([1]; Jurkat, conc 0.1 μm) | Hoechst 33342 nuclear staining score ([1]; Jurkat, conc 1 μm) | Hoechst 33342 nuclear staining score ([1]; MRC5, conc 0.01 μm) | Hoechst 33342 nuclear staining score ([1]; MRC5, conc 0.1 μm) | Hoechst 33342 nuclear staining score ([1]; MRC5, conc 1 μm) | Hoechst 33342 nuclear staining score ([1]; PBLs, conc 0.01 μm) | Hoechst 33342 nuclear staining score ([1]; PBLs, conc 0.1 μm) | Hoechst 33342 nuclear staining score ([1]; PBLs, conc 1 μm) | other results
1 | Nc1nonc1-c1nc2ccccc2n1CC(=O)c1ccc2ccccc2c1 [Example 42] | 10 to 100 nM | 10 to 100 nM | 10 to 100 nM | 10 to 100 nM | 100 to 1000 nM | 0 | 1 (1 relating to weak activity comprising less than 70% of the cells) | 2 (score 2 relating to strong activity comprising more than 70% of the cells) | 0 | 2 (score 2 relating to strong activity comprising more than 70% of the cells) | 2 (score 2 relating to strong activity comprising more than 70% of the cells) | 0 | 2 (score 2 relating to strong activity comprising more than 70% of the cells) | 2 (score 2 relating to strong activity comprising more than 70% of the cells) | 0 | 2 (score 2 relating to strong activity comprising more than 70% of the cells) | 2 (score 2 relating to strong activity comprising more than 70% of the cells) | 0 | 0 | 0 | Hoechst 33342 nuclear staining score ([1]; H460, conc 0.01 μm): 0; Hoechst 33342 nuclear staining score ([1]; H460, conc 0.1 μm): 2 (score 2 relating to strong activity comprising more than 70% of the cells); Hoechst 33342 nuclear staining score ([1]; H460, conc 1 μm): 2 (score 2 relating to strong activity comprising more than 70% of the cells)
2 | Nc1nonc1-c1nc2ccccc2n1CC(=O)c1ccc(C(F)(F)F)cc1 [Example 43] | 100 to 1000 nM | 100 to 1000 nM | 100 to 1000 nM | 100 to 1000 nM | 100 to 1000 nM | 0 | 0 | 1 (1 relating to weak activity comprising less than 70% of the cells) | 0 | 0 | 1 (1 relating to weak activity comprising less than 70% of the cells) | 0 | 0 | 2 (score 2 relating to strong activity comprising more than 70% of the cells) | 0 | 0 | 1 (1 relating to weak activity comprising less than 70% of the cells) | 0 | 0 | 0 | 
